Laboratory results taken from US20260250322A1, “NEW PEPTIDES AS SELECTIVE IL-23 RECEPTOR INHIBITORS” (SANOFI, priority 2023, published 2026).
Bridge positions count the residues as written; N and C are the ends. Square brackets hold non-standard residues; d marks the D form. Peptide text beside a SMILES is read from it. Trp(1-Me) = Cn1cc(C[C@H](N)C(=O)O)c2ccccc21; 1Nal = N[C@@H](Cc1cccc2ccccc12)C(=O)O; 2Nal = N[C@@H](Cc1ccc2ccccc2c1)C(=O)O; αMeL = CC(C)C[C@](C)(N)C(=O)O; Thp = NC1(C(=O)O)CCOCC1; Aib = CC(C)(N)C(=O)O

Columns and labels:
human IL-23R = target: T1, human IL-23R (Homo sapiens, UniProt Q5VWK5); experiment: Human ELISA IL-23/IL-23R binding inhibition; conditions: human IL-23 coated, recombinant human IL-23R-Fc chimera
T1 sequence (Q5VWK5 24-355 limits assumed): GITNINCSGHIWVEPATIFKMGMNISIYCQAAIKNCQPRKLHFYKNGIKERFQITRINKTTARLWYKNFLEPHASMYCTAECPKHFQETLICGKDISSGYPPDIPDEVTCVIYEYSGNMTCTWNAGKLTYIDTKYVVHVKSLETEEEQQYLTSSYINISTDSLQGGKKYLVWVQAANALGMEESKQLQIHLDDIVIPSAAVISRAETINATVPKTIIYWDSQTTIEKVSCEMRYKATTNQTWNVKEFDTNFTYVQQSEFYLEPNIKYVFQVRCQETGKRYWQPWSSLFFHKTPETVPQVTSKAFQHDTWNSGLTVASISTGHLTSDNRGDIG
Procedure: Antagonism of peptide compounds for human interleukin-23 receptor inhibitors, was determined by an ELISA assay.
A 384-well plate was coated with 50 μl/well of human IL-23 at a final concentration of 1 μg/ml and incubated overnight at 4° C. The wells were washed 3 times with 80 μl wash buffer and blocked with 80 μl blocking buffer for 60 minutes at room temperature and washed again. 20 μl of serially diluted test peptides was added to each well and subsequently 20 μl of recombinant human IL-23R-Fc chimera at final concentration of 0.1 μg/ml. The plate was incubated for 60 minutes at room temperature. After the wells were washed, bound IL-23R-Fc was detected with goat anti-hu-lgG1-HRP antibody. Signals were visualized with QuantaBlu Fluorogenic Peroxidase Substrate.

[1] = tested on: IL-23 induced STAT3 signaling; experiment: Inhibition of IL-23 induced STAT3 signaling in HEK-Blue IL-23 cells (SEAP reporter); format: cell-based; conditions: human IL-23 0.25 ng/ml, read-out: Inhibition of IL-23 induced pSTAT3 (IC50 nM)
Text: HEK-Blue™ IL-23 cells (Invivogen) are designed for the detection of bioactive human (hIL-23) and murine IL-23 (mIL-23) by monitoring the activation of the STAT3 pathway. Binding of IL-23 to its receptor on the surface of HEK-Blue™ IL-23 cells triggers a signaling cascade leading to the activation of STAT3 and the subsequent production of secreted embryonic alkaline phosphatase (SEAP). This can be readily assessed using QUANTI-Blue™ Solution, a SEAP detection reagent.
HEK-Blue™ IL-23 cells were cultured as described by Invivogen.
On the first day of assay 10 μL of the HEK-Blue IL-23 cell suspension (final concentration: 10,000 cells/well) and 10 μl of serially diluted compound solutions were dispensed into a 384-well assay plate. After pre-incubation of the reaction mixtures at 37° C./5% CO2/95% humidity for 60 minutes, 10 μl of the humanIL-23 cytokine (final concentration: 0.25 ng/ml) was added to each well for the STAT3 signaling activation. The plate was incubated overnight at 37° C./5% CO2/95% humidity.
On the second day 20 μl per well of Quanti-Blue detection solution (prepared according to the manufacture instruction) was dispensed into a new 384-well plate and followed by the transfer of 5 μl supernatant of the overnight incubated cell/sample mixtures. After incubation of 45 min at room temperature signals were measured with PHERAstar (BMG) at OD 620-655 nm.
Dose response data were fitted with XLfit.

[2] = Chemical stability (relative purity loss) of peptide compounds in buffer formulations; format: physicochemical
Procedure: Purity of a compound batch was determined through UHPLC/MS prior to chemical stability measurement using Method A.
For stability assessment, the target concentration was 300 μM pure compound. Therefore, solutions from solid samples were prepared in the following buffer systems with a concentration of ~300 µM compound based on the previously determined % purity. The solid samples were obtained by drying down aliquots of a freshly prepared acetonitrile stock solution using a THERMO SPEEDVAC vacuum centrifuge. The dry down time was 3 hours.
The following buffer systems were applied: • Solubility buffer system A) 100 mM phosphate buffer pH 7.4. • Solubility buffer system B) 100 mM phosphate buffer pH 6.5. • Solubility buffer system C) 100 mM HCl pH 1.2.
Prepared solutions were filtered through […] pore size and filled into sterilized glass containers under laminar flow conditions.
[…] After this time course, the samples were centrifuged for 15 min at 2500 RCF. Then 1.5 μl of the undiluted supernatant were analysed with UHPLC-UV.
The chemical stability was rated through the relative loss of purity calculated by the equation:
[(purity after 0 hours at 37° C.)(purity after 24 hours at 37° C.)]/(purity after 0 hours at 37° C.)]*100%.
The purity is calculated as [(peak area peptide)/(total peak area)]*100%.
Buffer composition: 100 mM HCl pH 1.2, 100 mM phosphate buffer pH 6.5, 100 mM phosphate buffer pH 7.4

[3] = pH 6.5 (100 mM phosphate buffer)
[4] = pH 7.4 (100 mM phosphate buffer)

COc1ccc(C[C@@H]2NC(=O)[C@H](CCCNC(=N)N)NC(=O)[C@H](CCC(N)=O)NC(=O)[C@H](Cc3c[nH]c4ccccc34)NC(=O)[C@H]([C@@H](C)O)NC(=O)[C@H](CC(N)=O)NC(=O)[C@H](NC(C)=O)CCCCNC(=O)CC[C@@H](C(=O)N[C@@H](CC(N)=O)C(=O)N[C@@H](CC(N)=O)C(N)=O)NC(=O)C(C)(C)NC(=O)[C@H](Cc3ccc4ccccc4c3)NC2=O)cc1 [compound 5] (Ac-[dK]NTWQRY(Me)[2Nal][Aib]ENN-NH2; lactam 1-10)
IC50 (human IL-23R): 1.95 nM
IC50 [1]: 432 nM

COc1ccc(C[C@@H]2NC(=O)[C@H](CCCNC(=N)N)NC(=O)[C@H](CCC(N)=O)NC(=O)[C@H](Cc3c[nH]c4ccccc34)NC(=O)[C@H]([C@@H](C)O)NC(=O)[C@H](CC(N)=O)NC(=O)[C@H](NC(C)=O)CC(=O)NCCCC[C@@H](C(=O)N[C@@H](CC(N)=O)C(=O)N[C@@H](CC(N)=O)C(N)=O)NC(=O)C(C)(C)NC(=O)[C@H](Cc3ccc4ccccc4c3)NC2=O)cc1 [compound 12] (Ac-[dD]NTWQRY(Me)[2Nal][Aib]KNN-NH2; lactam 1-10)
IC50 (human IL-23R): 14.9 nM
IC50 [1]: 6590 nM

COc1ccc(C[C@@H]2NC(=O)C(C)(C)NC(=O)[C@H](CCC(N)=O)NC(=O)[C@H](Cc3c[nH]c4ccccc34)NC(=O)[C@H]([C@@H](C)O)NC(=O)[C@H](CC(N)=O)NC(=O)[C@H](NC(C)=O)CCCCNC(=O)C[C@@H](C(=O)N[C@@H](CC(N)=O)C(=O)N[C@@H](CC(N)=O)C(N)=O)NC(=O)C(C)(C)NC(=O)[C@H](Cc3ccc4ccccc4c3)NC2=O)cc1 [compound 32] (Ac-[dK]NTWQ[Aib]Y(Me)[2Nal][Aib]DNN-NH2; lactam 1-10)
IC50 (human IL-23R): 2.68 nM
IC50 [1]: 320 nM

COc1ccc(C[C@@H]2NC(=O)[C@H](CCCNC(=N)N)NC(=O)[C@H](CCC(N)=O)NC(=O)[C@H](Cc3cn(C)c4ccccc34)NC(=O)[C@H]([C@@H](C)O)NC(=O)[C@H](CC(N)=O)NC(=O)[C@H](NC(C)=O)CCCCNC(=O)C[C@@H](C(=O)N[C@@H](CC(N)=O)C(=O)N[C@@H](CC(N)=O)C(N)=O)NC(=O)[C@H](CCCCNC(C)=O)NC(=O)[C@H](Cc3ccc4ccccc4c3)NC2=O)cc1 [compound 10] (Ac-[dK]NT[Trp(1-Me)]QRY(Me)[2Nal]K(Ac)DNN-NH2; lactam 1-10)
IC50 (human IL-23R): 3.6 nM
IC50 [1]: 1440 nM

COc1ccc(C[C@@H]2NC(=O)[C@H](C)NC(=O)[C@H](CCC(N)=O)NC(=O)[C@H](Cc3c[nH]c4ccccc34)NC(=O)[C@H]([C@@H](C)O)NC(=O)[C@H](CC(N)=O)NC(=O)[C@H](NC(C)=O)CCCCNC(=O)C[C@@H](C(=O)N[C@@H](CC(N)=O)C(=O)N[C@@H](CC(N)=O)C(N)=O)NC(=O)C(C)(C)NC(=O)[C@H](Cc3ccc4ccccc4c3)NC2=O)cc1 [compound 2] (Ac-[dK]NTWQAY(Me)[2Nal][Aib]DNN-NH2; lactam 1-10)
IC50 (human IL-23R): 0.69 nM
IC50 [1]: 234 nM

COc1ccc(C[C@@H]2NC(=O)[C@H](CC(C)C)NC(=O)[C@H](CCC(N)=O)NC(=O)[C@H](Cc3c[nH]c4ccccc34)NC(=O)[C@H]([C@@H](C)O)NC(=O)[C@H](CC(N)=O)NC(=O)[C@H](NC(C)=O)CCCCNC(=O)C[C@@H](C(=O)N[C@@H](CC(N)=O)C(=O)N[C@@H](CC(N)=O)C(N)=O)NC(=O)C(C)(C)NC(=O)[C@H](Cc3ccc4ccccc4c3)NC2=O)cc1 [compound 1] (Ac-[dK]NTWQLY(Me)[2Nal][Aib]DNN-NH2; lactam 1-10)
IC50 (human IL-23R): 0.63 nM
IC50 [1]: 334 nM

COc1ccc(C[C@@H]2NC(=O)[C@H](CCCNC(=N)N)NC(=O)[C@H](CCC(N)=O)NC(=O)[C@H](Cc3c[nH]c4ccccc34)NC(=O)[C@H]([C@@H](C)O)NC(=O)[C@H](CC(N)=O)NC(=O)[C@@H](NC(C)=O)CCCCNC(=O)C[C@@H](C(=O)N[C@@H](CC(N)=O)C(=O)N[C@@H](CC(N)=O)C(N)=O)NC(=O)C3(CCOCC3)NC(=O)[C@H](Cc3ccc4ccccc4c3)NC2=O)cc1 [compound 41] (Ac-KNTWQRY(Me)[2Nal][Thp]DNN-NH2; lactam 1-10)
IC50 (human IL-23R): 1.47 nM
IC50 [1]: 221 nM

COc1ccc(C[C@@H]2NC(=O)[C@H](CCCNC(=N)N)NC(=O)[C@H](CCC(N)=O)NC(=O)[C@H](Cc3cn(C)c4ccccc34)NC(=O)[C@H]([C@@H](C)O)NC(=O)[C@H](CC(N)=O)NC(=O)[C@H](NC(C)=O)CCCCNC(=O)C[C@@H](C(=O)N[C@@H](CC(N)=O)C(=O)N[C@@H](CC(N)=O)C(N)=O)NC(=O)[C@](C)(CC(C)C)NC(=O)[C@H](Cc3cccc4ccccc34)NC2=O)cc1 [compound 23] (Ac-[dK]NT[Trp(1-Me)]QRY(Me)[1Nal][αMeL]DNN-NH2; lactam 1-10)
IC50 (human IL-23R): 12 nM
IC50 [1]: 1960 nM

CC(=O)N[C@@H]1CCCCNC(=O)C[C@@H](C(=O)N[C@@H](CC(N)=O)C(=O)N[C@@H](CC(N)=O)C(N)=O)NC(=O)C(C)(C)NC(=O)[C@H](Cc2ccc3ccccc3c2)NC(=O)[C@H](Cc2ccc(O)cc2)NC(=O)[C@H](CCCNC(=N)N)NC(=O)[C@H](CCC(N)=O)NC(=O)[C@H](Cc2c[nH]c3ccccc23)NC(=O)[C@H]([C@@H](C)O)NC(=O)[C@H](CC(N)=O)NC1=O [compound 4] (Ac-[dK]NTWQRY[2Nal][Aib]DNN-NH2; lactam 1-10)
IC50 [1]: 339 nM
Conc. [mg/ml] 0 h ([2]; pH 1.2 (100 mM HCl)): 1.4 mg/mL
Conc. [mg/ml] 24 h 37° C. ([2]; pH 1.2 (100 mM HCl)): 1.0 mg/mL
Mass Balance [%] 24 h 37° C. ([2]; pH 1.2 (100 mM HCl)): −2.3%
Relative Purity Loss [%] 24 h 37° C. ([2]; pH 1.2 (100 mM HCl)): 22.9%
Conc. [mg/ml] 0 h [2, 3]: 1.4 mg/mL
Conc. [mg/ml] 24 h 37° C. [2, 3]: 1.3 mg/mL
Mass Balance [%] 24 h 37° C. [2, 3]: −4.6%
Relative Purity Loss [%] 24 h 37° C. [2, 3]: 0.7%
Conc. [mg/ml] 0 h [2, 4]: 1.4 mg/mL
Conc. [mg/ml] 24 h 37° C. [2, 4]: 1.3 mg/mL
Mass Balance [%] 24 h 37° C. [2, 4]: −2.2%
Relative Purity Loss [%] 24 h 37° C. [2, 4]: 2.7%

COc1ccc(C[C@@H]2NC(=O)[C@H](CCCNC(=N)N)NC(=O)[C@H](CCC(N)=O)NC(=O)[C@H](Cc3c[nH]c4ccccc34)NC(=O)[C@H]([C@@H](C)O)NC(=O)[C@H](CC(N)=O)NC(=O)[C@@H](NC(C)=O)CCCCNC(=O)C[C@@H](C(=O)N[C@@H](CC(N)=O)C(=O)N[C@@H](CC(N)=O)C(N)=O)NC(=O)C(C)(C)NC(=O)[C@H](Cc3cccc4ccccc34)NC2=O)cc1 [compound 9] (Ac-KNTWQRY(Me)[1Nal][Aib]DNN-NH2; lactam 1-10)
IC50 [1]: 1610 nM
Conc. [mg/ml] 0 h ([2]; pH 1.2 (100 mM HCl)): 1.5 mg/mL
Conc. [mg/ml] 24 h 37° C. ([2]; pH 1.2 (100 mM HCl)): 1.1 mg/mL
Mass Balance [%] 24 h 37° C. ([2]; pH 1.2 (100 mM HCl)): −1.9%
Relative Purity Loss [%] 24 h 37° C. ([2]; pH 1.2 (100 mM HCl)): 22.3%
Conc. [mg/ml] 0 h [2, 3]: 1.2 mg/mL
Conc. [mg/ml] 24 h 37° C. [2, 3]: 1.2 mg/mL
Mass Balance [%] 24 h 37° C. [2, 3]: −1.8%
Relative Purity Loss [%] 24 h 37° C. [2, 3]: 1.2%
Conc. [mg/ml] 0 h [2, 4]: 1.5 mg/mL
Conc. [mg/ml] 24 h 37° C. [2, 4]: 1.4 mg/mL
Mass Balance [%] 24 h 37° C. [2, 4]: −3.2%
Relative Purity Loss [%] 24 h 37° C. [2, 4]: 2.6%
